Among the data in patent US12435061B2 (priority 2020, dated 2025) are IC50 values, retold here.

hTRPV3, sequence (Q8NET8 whole entry, the tested form may be a part): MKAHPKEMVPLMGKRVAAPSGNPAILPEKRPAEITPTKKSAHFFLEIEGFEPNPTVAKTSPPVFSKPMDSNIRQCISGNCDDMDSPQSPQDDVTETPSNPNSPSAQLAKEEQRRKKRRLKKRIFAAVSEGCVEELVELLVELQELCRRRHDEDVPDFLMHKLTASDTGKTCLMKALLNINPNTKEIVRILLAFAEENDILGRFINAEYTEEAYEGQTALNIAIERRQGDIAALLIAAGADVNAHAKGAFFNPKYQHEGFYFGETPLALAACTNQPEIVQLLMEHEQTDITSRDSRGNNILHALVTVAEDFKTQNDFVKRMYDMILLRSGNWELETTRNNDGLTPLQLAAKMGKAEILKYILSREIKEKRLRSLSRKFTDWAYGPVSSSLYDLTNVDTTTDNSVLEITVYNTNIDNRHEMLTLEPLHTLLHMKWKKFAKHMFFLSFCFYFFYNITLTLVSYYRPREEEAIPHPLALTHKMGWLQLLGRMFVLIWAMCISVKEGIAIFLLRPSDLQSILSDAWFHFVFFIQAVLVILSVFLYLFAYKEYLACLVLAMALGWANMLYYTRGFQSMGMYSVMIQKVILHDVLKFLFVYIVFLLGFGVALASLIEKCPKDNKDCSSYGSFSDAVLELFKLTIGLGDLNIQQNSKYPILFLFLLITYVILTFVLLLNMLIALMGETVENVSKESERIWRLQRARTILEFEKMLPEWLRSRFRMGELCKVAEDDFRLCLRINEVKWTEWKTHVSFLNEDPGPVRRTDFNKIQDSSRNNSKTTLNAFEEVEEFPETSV

The first assay has as its target hTRPV3 (Homo sapiens (Human), UniProt Q8NET8). The assay is described as follows: Whole-cell patch clamp, hTRPV3 Phase 1 / Phase 2 currents. As to conditions: Phase 1 current, inward, whole-cell patch clamp; read-out: hTRPV3 Patch P1 Inwd. Format: cell-based. From the text:
Whole-cell patch clamp experiments permit the detection of currents through the TRPV3 channel in the cell line described above. A glass electrode is brought into contact with a single cell and the membrane is then ruptured, permitting control of the voltage of the cell membrane and measurement of currents flowing across the membrane using the amplifier attached to the electrode. A perfusion system permits control of the extracellular solution, including the addition of blockers and activators of the current. The current can be activated by heating this solution to 28° C. or warmer or by addition of 20 μM 2-APB to the solution.
TRPV3 cells were induced 20-48 hours, removed from growth plates, and replated at low density (to attain good single-cell physical separation) on glass coverslips for measurement. In some cases, cells were grown in low density overnight on glass coverslips. Patch clamp recordings were made in the whole-cell mode with a holding potential of −40 mV. Every 5 seconds, a voltage ramp was applied from −120 to +100 mV, 400 ms in duration. Currents elicited were quantified at −80 mV and +80 mV. […] External solution was Ringer's solution described above.
P1 refers to the Phase 1 current for human (h) TRPV3, and P2 refers to the Phase 2 current for human (h) TRPV3.
In Tables 3 and 4, Phase 1 refers to Phase 1 current for human (h) TRPV3 or rat (r) TRPV3, and Phase 2 refers to Phase 2 current for human (h) TRPV3 or rat (r) TRPV3. The hTRPV3 and rTRPV3 assays were performed as described herein. hERG refers to the inhibition the human ERG (hERG) channel. NaV1.5, refers to the pore forming aL-subunit of the voltage-dependent cardiac Na(+) channel and is an integral membrane protein involved in the initiation and conduction of action potentials. hTRPV3 HAMA IC50 refers to the IC50 of TRPV3 cells stably expressed in TRex-293 cells. Solubility Ringer refers to the compounds' solubility in Ringer's solution. LM T1/2 refers to liver microsome half-lives in either rat or human liver microsomes. FLIPR IC50 refers to the IC50 of the test compounds against recombinant hTRPV3 cells.
For orientation: In patch-clamp work, channel activity is measured electrically.
For `N#Cc1ccc(N2CC[C@@H](Oc3ccc(C(F)(F)F)cn3)C2)c(C(N)=O)c1` [Compound 1-34, (R)-5-cyano-2-(3-(5-(trifluoromethyl)pyridin-2-yloxy)pyrrolidin-1-yl)benzamide], the IC50 was more than 1 µM. Regarding `NCc1ccc(N2CC[C@H](Oc3ccc(C(F)(F)F)cn3)C2)c(C(N)=O)c1` [Compound 1-35], the IC50 was more than 1 µM. The same measure, in the same setting: the figure for `FC(F)(F)c1ccc(O[C@@H]2CCN(c3ccccc3OC3CCCC3)C2)nc1` [Compound 1-36, (R)-2-(1-(2-(cyclopentyloxy)phenyl)pyrrolidin-3-yloxy)-5-(trifluoromethyl)pyridine] is more than 1 µM; for `CC(C)Oc1ccccc1N1CC[C@@H](Oc2ccc(C(F)(F)F)cn2)C1` [Compound 1-37, (R)-2-(1-(2-isopropoxyphenyl)pyrrolidin-3-yloxy)-5-(trifluoromethyl)pyridine] it is more than 1 µM. Still for that read-out and setting: the figure for `FC(F)(F)c1ccc(O[C@@H]2CCN(c3ccccc3OCc3ccccc3)C2)nc1` [Compound 1-38, (R)-2-(1-(2-(benzyloxy)phenyl)pyrrolidin-3-yloxy)-5-(trifluoromethyl)pyridine] is more than 1 µM; for `CNC(=O)c1ccccc1N1CC[C@H](Oc2ccc(C(F)(F)F)cn2)C1` [Compound 1-39, (S)—N-methyl-2-(3-(5-(trifluoromethyl)pyridin-2-yloxy)pyrrolidin-1-yl)benzamide] it is more than 1 µM; for `O=C(O)c1ccccc1N1CC[C@@H](Oc2ccc(C(F)(F)F)cn2)C1` [Compound 1-41, (R)-2-(3-(5-(trifluoromethyl)pyridin-2-yloxy)pyrrolidin-1-yl)benzoic acid] it is more than 1 µM. On the same count and under the same terms, the figure for `NCc1ccc(N2CC[C@@H](Oc3ccc(C(F)(F)F)cn3)C2)c(C(N)=O)c1` [Compound 1-45] is more than 1 µM; for `CC(C)NC(=O)c1ccccc1N1CC[C@H](Oc2ccc(C(F)(F)F)cn2)C1` [Compound 1-46, (S)—N-isopropyl-2-(3-(5-(trifluoromethyl)pyridin-2-yloxy)pyrrolidin-1-yl)benzamide] it is more than 1 µM; for `CNC(=O)c1ccccc1N1CC[C@@H](Oc2ccc(C(F)(F)F)cn2)C1` [Compound 1-47, (R)—N-methyl-2-(3-(5-(trifluoromethyl)pyridin-2-yloxy)pyrrolidin-1-yl)benzamide] it is more than 1 µM. As for `CC(C)NC(=O)c1ccccc1N1CC[C@@H](Oc2ccc(C(F)(F)F)cn2)C1` [Compound 1-49, (R)—N-isopropyl-2-(3-(5-(trifluoromethyl)pyridin-2-yloxy)pyrrolidin-1-yl)benzamide], the IC50 is more than 1 µM. `O=C(NCc1ccccc1)c1ccccc1N1CC[C@@H](Oc2ccc(C(F)(F)F)cn2)C1` [Compound 1-50, (R)—N-benzyl-2-(3-(5-(trifluoromethyl)pyridin-2-yloxy)pyrrolidin-1-yl)benzamide]: the IC50 was more than 1 µM.

As to `O=C(c1ccccc1N1CC[C@H](Oc2ccc(C(F)(F)F)cn2)C1)N(Cc1ccccc1)Cc1ccccc1` [Compound 1-52, (S)—N,N-dibenzyl-2-(3-(5-(trifluoromethyl)pyridin-2-yloxy)pyrrolidin-1-yl)benzamide], the IC50 was more than 1 µM. Still for that read-out and setting: next, `O=C(c1ccccc1N1CC[C@@H](Oc2ccc(C(F)(F)F)cn2)C1)N(Cc1ccccc1)Cc1ccccc1` [Compound 1-53, (R)—N,N-dibenzyl-2-(3-(5-(trifluoromethyl)pyridin-2-yloxy)pyrrolidin-1-yl)benzamide]: more than 1 µM.

Take `CC(C)(C)OC(=O)c1ccccc1N1CC[C@H](Oc2ccc(C(F)(F)F)cn2)C1` [Compound 1-54, (S)-tert-butyl 2-(3-(5-(trifluoromethyl)pyridin-2-yloxy)pyrrolidin-1-yl)benzoate]: the IC50 was more than 1 µM.

Still in this assay, the particulars now being: Phase 2 current, inward, whole-cell patch clamp; read-out: hTRPV3 Patch P2 Inwd.
Regarding `O=C(O)c1ccccc1N1CC[C@@H](Oc2ccc(C(F)(F)F)cn2)C1` [Compound 1-41, (R)-2-(3-(5-(trifluoromethyl)pyridin-2-yloxy)pyrrolidin-1-yl)benzoic acid], the IC50 is more than 1 µM. Still for that read-out and setting: next, `O=C(NCc1ccccc1)c1ccccc1N1CC[C@@H](Oc2ccc(C(F)(F)F)cn2)C1` [Compound 1-50, (R)—N-benzyl-2-(3-(5-(trifluoromethyl)pyridin-2-yloxy)pyrrolidin-1-yl)benzamide]: more than 1 µM; `O=C(NCc1ccccc1)c1ccccc1N1CC[C@H](Oc2ccc(C(F)(F)F)cn2)C1` [Compound 1-51, (S)—N-benzyl-2-(3-(5-(trifluoromethyl)pyridin-2-yloxy)pyrrolidin-1-yl)benzamide]: more than 1 µM.
